Data as given in ChEMBL document CHEMBL1201862, “PubChem BioAssay data set” (2004).
Calls of active or inactive are those of the source.

Tests used:
Prothrombin = Prothrombin (Homo sapiens, UniProt P00734); assay: Thrombin 1536 HTS Dose Response Confirmation. [Related pubchem assays: 1046 (Thrombin 1536 HTS; hits were confirmed in this assay)]; type: functional
Vero = assay: mammalian cell viability reduction – secondary assay, cytotoxicity control for West Nile virus antiviral project, dose response (AID 1650); type: functional; settings: Chlorocebus sabaeus
[1] = reduction of Shn3 3'UTR-driven luciferase in osteoblasts – cell-based, Clone20 osteoblasts, firefly luciferase, cherry-picked, dose response (AID 624132); type: functional;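 also: firefly luciferase luminescence from reporter carrying the Shn3 3'UTR in osteoblasts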
[2] = non-specific 3'UTR reporter inhibition in Clone20-Shn3RL – cell-based, Renilla luciferase, cherry-picked, counter-screen for Shn3 inhibitor project, dose response (AID 624133); type: functional
Paired box protein Pax-8 = Paired box protein Pax-8 (Homo sapiens, UniProt Q06710); assay: PAX8 transcriptional activity inhibition in RMG-I – RMG-I cells, luciferase, cherry-pick, dose response (AID 687027); type: functional, cell-based;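 also: luciferase reporter driven by Pax8 target thyroperoxidase promoter measured by SteadyGlo luminescence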
Sequence of Paired box protein Pax-8 (Q06710 whole entry, the tested form may be a part): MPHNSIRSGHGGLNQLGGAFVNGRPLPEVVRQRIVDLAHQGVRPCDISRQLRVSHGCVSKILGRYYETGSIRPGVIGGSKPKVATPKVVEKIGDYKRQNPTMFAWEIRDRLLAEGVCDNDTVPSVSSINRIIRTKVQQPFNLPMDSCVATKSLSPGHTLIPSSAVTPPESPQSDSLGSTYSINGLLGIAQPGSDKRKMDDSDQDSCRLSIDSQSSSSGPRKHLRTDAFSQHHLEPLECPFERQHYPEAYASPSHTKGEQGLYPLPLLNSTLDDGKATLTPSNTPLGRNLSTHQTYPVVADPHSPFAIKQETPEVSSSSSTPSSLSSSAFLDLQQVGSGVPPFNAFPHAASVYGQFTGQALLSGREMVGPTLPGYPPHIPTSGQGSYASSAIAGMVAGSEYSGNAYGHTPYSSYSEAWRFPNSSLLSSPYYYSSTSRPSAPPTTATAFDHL

[3] = target: T1, RNA-binding protein pos-1 (Caenorhabditis elegans, UniProt G5EF15); assay: disruptors of C. elegans POS-1 RNA interaction – biochemical, fluorescence polarization, dose response (AID 1964);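 also: purified POS-1 fused to maltose binding protein made in E. coli; potency of compounds blocking POS-1 binding to fluorescent RNA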
T1 sequence (G5EF15 whole entry): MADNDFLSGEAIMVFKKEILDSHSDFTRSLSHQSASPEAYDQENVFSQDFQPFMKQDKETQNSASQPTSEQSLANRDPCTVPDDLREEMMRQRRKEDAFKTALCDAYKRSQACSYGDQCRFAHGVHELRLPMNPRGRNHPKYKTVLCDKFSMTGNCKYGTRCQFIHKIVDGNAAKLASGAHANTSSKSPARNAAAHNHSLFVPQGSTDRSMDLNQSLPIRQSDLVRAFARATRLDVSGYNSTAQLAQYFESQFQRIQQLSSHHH

[4] = target: T2, Zinc finger protein mex-5 (Caenorhabditis elegans, UniProt Q9XUB2); assay: potency of MEX-5 RNA-binding blockers – biochemical, C. elegans, fluorescence polarization, dose response (AID 1960)
T2 sequence (Q9XUB2 whole entry): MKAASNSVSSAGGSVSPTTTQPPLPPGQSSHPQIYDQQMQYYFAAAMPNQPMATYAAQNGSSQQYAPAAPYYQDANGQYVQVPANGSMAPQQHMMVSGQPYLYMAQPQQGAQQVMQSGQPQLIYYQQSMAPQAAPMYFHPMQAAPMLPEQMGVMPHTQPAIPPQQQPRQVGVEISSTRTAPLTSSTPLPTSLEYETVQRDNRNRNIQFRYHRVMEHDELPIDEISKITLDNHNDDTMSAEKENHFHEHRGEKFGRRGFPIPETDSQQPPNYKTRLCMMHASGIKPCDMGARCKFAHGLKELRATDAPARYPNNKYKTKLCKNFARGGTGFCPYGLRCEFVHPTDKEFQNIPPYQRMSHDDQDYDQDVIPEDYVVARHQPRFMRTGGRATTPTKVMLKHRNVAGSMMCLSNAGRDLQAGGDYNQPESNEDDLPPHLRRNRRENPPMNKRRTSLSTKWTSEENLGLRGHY

[5] = target: T3, Bifunctional protein GlmU (Mycobacterium tuberculosis, UniProt P9WMN3); assay: Inhibitors of Mycobacterial Glucosamine-1-phosphate acetyl transferase (GlmU). Secondary screen.; design: species or system Mycobacterium tuberculosis H37Rv
T3 sequence (P9WMN3 whole entry): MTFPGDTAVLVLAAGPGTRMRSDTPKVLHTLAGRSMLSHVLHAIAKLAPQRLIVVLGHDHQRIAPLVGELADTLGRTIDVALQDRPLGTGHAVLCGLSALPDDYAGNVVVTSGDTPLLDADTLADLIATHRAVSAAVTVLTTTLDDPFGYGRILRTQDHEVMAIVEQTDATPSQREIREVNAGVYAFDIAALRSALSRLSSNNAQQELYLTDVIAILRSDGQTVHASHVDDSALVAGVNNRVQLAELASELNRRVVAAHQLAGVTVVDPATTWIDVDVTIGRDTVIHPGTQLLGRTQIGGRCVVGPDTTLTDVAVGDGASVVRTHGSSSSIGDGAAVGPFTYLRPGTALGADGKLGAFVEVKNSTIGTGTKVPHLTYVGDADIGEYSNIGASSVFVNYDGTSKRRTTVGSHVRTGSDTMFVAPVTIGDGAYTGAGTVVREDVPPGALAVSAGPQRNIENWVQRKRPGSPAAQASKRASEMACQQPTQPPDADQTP

[6] = target: T4, Carboxy-terminal domain RNA polymerase II polypeptide A small phosphatase 1 (Homo sapiens, UniProt Q9GZU7); assay: CTDSP1 inhibitors, concentration-response, biochemical, absorbance readout, ultra-high-throughput screen actives (AID 540297); type: functional
T4 sequence (Q9GZU7 whole entry): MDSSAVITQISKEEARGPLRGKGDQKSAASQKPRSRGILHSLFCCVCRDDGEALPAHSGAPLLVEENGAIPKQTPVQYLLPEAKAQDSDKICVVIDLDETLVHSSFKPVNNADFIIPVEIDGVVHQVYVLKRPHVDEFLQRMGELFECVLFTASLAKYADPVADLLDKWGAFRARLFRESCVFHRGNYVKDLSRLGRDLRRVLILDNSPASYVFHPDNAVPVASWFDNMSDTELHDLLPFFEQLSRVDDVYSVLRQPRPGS

[7] = target: T5, Histone-lysine N-methyltransferase NSD2 (Homo sapiens, UniProt O96028); type: biochemical
T5 sequence (O96028 whole entry): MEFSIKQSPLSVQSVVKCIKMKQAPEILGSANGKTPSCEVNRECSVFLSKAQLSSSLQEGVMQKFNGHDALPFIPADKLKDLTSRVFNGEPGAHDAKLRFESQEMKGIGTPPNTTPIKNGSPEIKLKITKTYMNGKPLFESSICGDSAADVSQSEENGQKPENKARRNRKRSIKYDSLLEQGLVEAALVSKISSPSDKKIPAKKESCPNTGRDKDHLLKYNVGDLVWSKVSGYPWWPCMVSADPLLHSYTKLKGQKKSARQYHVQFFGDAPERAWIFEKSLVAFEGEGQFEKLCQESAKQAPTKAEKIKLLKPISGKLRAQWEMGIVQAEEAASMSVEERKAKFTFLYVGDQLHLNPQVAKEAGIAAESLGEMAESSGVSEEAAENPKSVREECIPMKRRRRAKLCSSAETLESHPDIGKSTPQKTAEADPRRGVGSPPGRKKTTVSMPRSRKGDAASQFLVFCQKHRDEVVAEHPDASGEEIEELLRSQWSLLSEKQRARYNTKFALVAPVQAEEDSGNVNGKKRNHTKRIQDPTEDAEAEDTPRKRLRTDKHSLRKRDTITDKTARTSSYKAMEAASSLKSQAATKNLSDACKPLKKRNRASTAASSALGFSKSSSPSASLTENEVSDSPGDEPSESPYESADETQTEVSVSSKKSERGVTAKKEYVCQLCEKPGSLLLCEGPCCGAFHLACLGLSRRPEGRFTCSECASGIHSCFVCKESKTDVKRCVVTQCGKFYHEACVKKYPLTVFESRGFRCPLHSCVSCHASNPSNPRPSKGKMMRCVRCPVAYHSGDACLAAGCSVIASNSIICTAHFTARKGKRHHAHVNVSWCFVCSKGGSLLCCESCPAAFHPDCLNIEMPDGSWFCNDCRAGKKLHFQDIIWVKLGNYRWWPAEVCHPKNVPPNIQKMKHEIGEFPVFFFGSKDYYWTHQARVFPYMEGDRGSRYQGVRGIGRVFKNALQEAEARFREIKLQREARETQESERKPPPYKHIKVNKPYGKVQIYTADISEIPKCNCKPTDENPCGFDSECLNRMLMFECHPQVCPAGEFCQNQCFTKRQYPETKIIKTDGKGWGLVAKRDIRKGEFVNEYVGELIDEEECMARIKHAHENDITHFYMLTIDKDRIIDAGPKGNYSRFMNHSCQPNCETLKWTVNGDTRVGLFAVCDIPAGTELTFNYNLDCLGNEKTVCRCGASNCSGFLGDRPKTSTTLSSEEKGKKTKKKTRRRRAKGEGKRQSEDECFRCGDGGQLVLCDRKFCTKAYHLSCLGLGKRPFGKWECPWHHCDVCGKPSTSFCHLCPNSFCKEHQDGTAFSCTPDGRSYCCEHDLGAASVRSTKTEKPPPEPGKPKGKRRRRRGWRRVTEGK

[8] = luciferase reporter signal suppression in cells – H4 neuroglioma cells, luminescence, dose response (AID 1990); type: functional, cell-based
[9] = Luminescence Cell-Based Dose Response HTS to Identify Inhibitors of 5'UTR Stem-Loop Driven Prion Protein mRNA Translation in H4 Neuroglioblastoma Cells. [Related pubchem assays: 1827 (Project Summary), 1813 (Primary HTS)]; type: functional
[10] = alpha-synuclein stem-loop luciferase translation blockers – H4 neuroglioma cells, luminescence, confirmation (AID 1988); type: functional, cell-based

CCOc1ccc(NC(=O)C(C)O)c(NS(=O)(=O)c2ccc(CCNC(C)=O)cc2)c1 (stereo not given)
IC50 (Prothrombin): > 50 µM (not active)

C=C1C(=O)[C@@]23[C@H](O)C[C@@H]4C(C)(C)CC[C@H](O)[C@]4(C)[C@@H]2C[C@H](O)[C@@H]1[C@H]3O
CC50 (Vero): 14.9 µM (active) | AC50 [1]: 2.95 µM (active) | AC50 [2]: 18.3 µM (active) | AC50 (Paired box protein Pax-8): 3.37 µM (active)

CC(=O)NC1=NC(=O)/C(=C/c2cc(C)n(-c3cccc(C(=O)O)c3)c2C)S1
EC50 [3]: > 300 µM (not active) | EC50 [4]: > 300 µM (inconclusive) | IC50 [5]: 93.8 µM (active) | IC50 [6]: 4.31 µM (active) | AC50 [7]: 9.13 µM (active)

Cc1ccc(S(=O)(=O)/N=C/c2ccco2)cc1
IC50 (Prothrombin): > 50 µM (not active)

C=CCc1cccc(/C=N/NC(=O)CNc2ccccc2)c1O
EC50 [8]: > 120 µM (not active) | EC50 [9]: 10.7 µM (active) | EC50 [10]: > 120 µM (not active) | IC50 (Prothrombin): > 50 µM (not active)
